The text below walks through data of patent US10112939B2, “Tied-back benzamide derivatives as potent rock inhibitors” (Bristol-Myers Squibb Company, priority 2014, dated 2018).

pIC50: −log10 of the molar value.

The assay deals with ROCK2 (Homo sapiens (Human), UniProt O75116). As to the kind of experiment: ROCK assay (peptide substrate phosphorylation, LABCHIP 3000 Reader). Format: biochemical. The settings on record: 5 μM ATP, 1.5 μM peptide substrate. Here is the method: Compounds were dissolved in DMSO so that the final concentration of DMSO was <2%, and the reaction was initiated with Rho kinase variants. After incubation, the reaction was terminated by the addition of EDTA and the phosphorylated and non-phosphorylated peptides separated using a LABCHIP® 3000 Reader (Caliper Life Sciences). […] Compounds were tested in dose-response format, and the inhibition of kinase activity was calculated at each concentration of compound.
ROCK2, sequence (O75116 whole entry, species assumed): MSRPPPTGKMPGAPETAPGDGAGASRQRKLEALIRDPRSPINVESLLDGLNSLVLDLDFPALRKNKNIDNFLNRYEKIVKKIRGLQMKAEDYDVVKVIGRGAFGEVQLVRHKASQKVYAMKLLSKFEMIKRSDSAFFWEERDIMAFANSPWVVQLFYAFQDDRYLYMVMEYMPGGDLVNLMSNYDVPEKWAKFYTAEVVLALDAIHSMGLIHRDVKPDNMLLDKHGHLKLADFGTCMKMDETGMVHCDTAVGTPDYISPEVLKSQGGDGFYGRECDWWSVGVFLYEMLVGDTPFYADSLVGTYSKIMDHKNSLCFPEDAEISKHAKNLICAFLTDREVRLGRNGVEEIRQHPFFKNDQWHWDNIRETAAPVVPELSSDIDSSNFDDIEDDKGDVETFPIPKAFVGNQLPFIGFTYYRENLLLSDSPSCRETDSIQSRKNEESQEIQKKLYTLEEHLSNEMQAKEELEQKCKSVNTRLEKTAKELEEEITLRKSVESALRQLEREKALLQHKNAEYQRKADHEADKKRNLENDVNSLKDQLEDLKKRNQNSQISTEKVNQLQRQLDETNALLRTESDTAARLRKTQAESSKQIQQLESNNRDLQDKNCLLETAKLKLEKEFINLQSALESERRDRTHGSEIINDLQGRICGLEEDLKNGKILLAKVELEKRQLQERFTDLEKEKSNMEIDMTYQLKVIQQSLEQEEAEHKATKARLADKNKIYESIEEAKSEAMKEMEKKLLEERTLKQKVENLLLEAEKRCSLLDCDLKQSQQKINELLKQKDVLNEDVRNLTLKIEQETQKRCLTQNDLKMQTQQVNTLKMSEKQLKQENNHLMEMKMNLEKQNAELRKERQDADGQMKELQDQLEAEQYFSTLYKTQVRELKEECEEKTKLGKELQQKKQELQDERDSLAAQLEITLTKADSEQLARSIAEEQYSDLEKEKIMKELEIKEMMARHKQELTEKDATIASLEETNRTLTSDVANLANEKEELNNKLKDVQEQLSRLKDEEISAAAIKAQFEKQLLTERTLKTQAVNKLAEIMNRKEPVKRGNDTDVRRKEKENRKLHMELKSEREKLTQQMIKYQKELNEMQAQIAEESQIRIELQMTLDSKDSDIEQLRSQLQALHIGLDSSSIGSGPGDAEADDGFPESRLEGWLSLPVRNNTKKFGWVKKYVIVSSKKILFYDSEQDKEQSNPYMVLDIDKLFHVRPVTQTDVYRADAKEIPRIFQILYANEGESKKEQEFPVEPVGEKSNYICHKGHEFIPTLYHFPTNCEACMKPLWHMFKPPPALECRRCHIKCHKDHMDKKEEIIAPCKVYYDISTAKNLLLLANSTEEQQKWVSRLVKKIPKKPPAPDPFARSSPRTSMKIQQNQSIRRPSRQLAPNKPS
`CNC(=O)c1cccc([C@H]2CC(O)CN2C(=O)c2ccc(-c3cn[nH]c3)c(OC)c2)c1` (stereo partly drawn) [Example 46, 3-[(2R)-4-hydroxy-1-[3-methoxy-4-(1H-pyrazol-4-yl)benzoyl]pyrrolidin-2-yl]-N-methylbenzamide] gave a negative-log IC50 (pIC50) of 7.74. `COc1cc(C(=O)N2CC(O)C[C@@H]2c2cccc(C(=O)NCC(C)(C)O)c2)ccc1-c1cn[nH]c1` (stereo partly drawn) [Example 47, 3-[(2R)-4-hydroxy-1-[3-methoxy-4-(1H-pyrazol-4-yl)benzoyl]pyrrolidin-2-yl]-N-(2-hydroxy-2-methylpropyl)benzamide]: the pIC50 was 8.14.

`COc1cc(C(=O)N2CC(O)C[C@@H]2c2cccc(C(=O)NC3CC3)c2)ccc1-c1cn[nH]c1` (stereo partly drawn) [Example 48, N-cyclopropyl-3-[(2R)-4-hydroxy-1-[3-methoxy-4-(1H-pyrazol-4-yl)benzoyl]pyrrolidin-2-yl]benzamide] gave a negative logarithm of the IC50 (pIC50) of 8.27. For `CCN1CCC[C@H]1CNC(=O)c1cccc([C@H]2CC(O)CN2C(=O)c2ccc(-c3cn[nH]c3)c(OC)c2)c1` (stereo partly drawn) [Example 49, N-{[(2S)-1-ethylpyrrolidin-2-yl]methyl}-3-[(2R)-4-hydroxy-1-[3-methoxy-4-(1H-pyrazol-4-yl)benzoyl]pyrrolidin-2-yl]benzamide] the value was 7.36; for `COCCNC(=O)c1cccc([C@H]2CC(O)CN2C(=O)c2ccc(-c3cn[nH]c3)c(OC)c2)c1` (stereo partly drawn) [Example 50, 3-[(2R)-4-hydroxy-1-[3-methoxy-4-(1H-pyrazol-4-yl)benzoyl]pyrrolidin-2-yl]-N-(2-methoxyethyl) benzamide], 8.29. Compound `COc1cc(C(=O)N2CC(O)C[C@@H]2c2cccc(C(=O)NCC3CC3)c2)ccc1-c1cn[nH]c1` (stereo partly drawn) [Example 51, N-(cyclopropylmethyl)-3-[(2R)-4-hydroxy-1-[3-methoxy-4-(1H-pyrazol-4-yl)benzoyl]pyrrolidin-2-yl]benzamide] gave a pIC50 of 8.57. In turn, `COc1cc(C(=O)N2CC(O)C[C@@H]2c2cccc(C(=O)NC(C)C)c2)ccc1-c1cn[nH]c1` (stereo partly drawn) [Example 52, 3-[(2R)-4-hydroxy-1-[3-methoxy-4-(1H-pyrazol-4-yl)benzoyl]pyrrolidin-2-yl]-N-(propan-2-yl)benzamide] gave a pIC50 of 8.18. This pIC50 lies 0.39 log units lower than the previous one. In the case of `COc1cc(C(=O)N2CC(O)C[C@@H]2c2cccc(C(=O)NC3CCC3)c2)ccc1-c1cn[nH]c1` (stereo partly drawn) [Example 54, N-cyclobutyl-3-[(2R)-4-hydroxy-1-[3-methoxy-4-(1H-pyrazol-4-yl)benzoyl]pyrrolidin-2-yl]benzamide], the negative-log IC50 (pIC50) is 8.29.

With `COc1cc(C(=O)N2CC(O)C[C@@H]2c2cccc(C(=O)NCc3ncco3)c2)ccc1-c1cn[nH]c1` (stereo partly drawn) [Example 55, 3-[(2R)-4-hydroxy-1-[3-methoxy-4-(1H-pyrazol-4-yl)benzoyl]pyrrolidin-2-yl]-N-(1,3-oxazol-2-ylmethyl)benzamide], the pIC50 is 8.60.

Turning to `COc1cc(C(=O)N2CC(O)C[C@@H]2c2cccc(C(=O)NC3CCOCC3)c2)ccc1-c1cn[nH]c1` (stereo partly drawn) [Example 56, 3-[(2R)-4-hydroxy-1-[3-methoxy-4-(1H-pyrazol-4-yl)benzoyl]pyrrolidin-2-yl]-N-(oxan-4-yl)benzamide], the pIC50 is 8.14. For `COc1cc(C(=O)N2CC(O)C[C@@H]2c2cccc(C(=O)NC3(C)CC3)c2)ccc1-c1cn[nH]c1` (stereo partly drawn) [Example 57, 3-[(2R)-4-hydroxy-1-[3-methoxy-4-(1H-pyrazol-4-yl)benzoyl]pyrrolidin-2-yl]-N-(1-methylcyclopropyl) benzamide] the value was 7.36; for `COc1cc(C(=O)N2CC(O)C[C@@H]2c2cccc(C(=O)NCc3cc(C)no3)c2)ccc1-c1cn[nH]c1` (stereo partly drawn) [Example 58, 3-[(2R)-4-hydroxy-1-[3-methoxy-4-(1H-pyrazol-4-yl)benzoyl]pyrrolidin-2-yl]-N-[(3-methyl-1,2-oxazol-5-yl)methyl] benzamide], 8.27.

`COc1cc(C(=O)N2CC(O)C[C@@H]2c2cccc(C(=O)NCc3cc(C)on3)c2)ccc1-c1cn[nH]c1` (stereo partly drawn) [Example 59, 3-[(2R)-4-hydroxy-1-[3-methoxy-4-(1H-pyrazol-4-yl)benzoyl]pyrrolidin-2-yl]-N-[(5-methyl-1,2-oxazol-3-yl)methyl] benzamide] had a pIC50 of 8.74. Regarding `COc1cc(C(=O)N2CC(O)C[C@@H]2c2cccc(C(=O)NCC(F)F)c2)ccc1-c1cn[nH]c1` (stereo partly drawn) [Example 60, N-(2,2-difluoroethyl)-3-[(2R)-4-hydroxy-1-[3-methoxy-4-(1H-pyrazol-4-yl)benzoyl]pyrrolidin-2-yl]benzamide], the negative-log IC50 (pIC50) is 8.39. Regarding `COc1cc(C(=O)N2CC(O)C[C@@H]2c2cccc(C(=O)N3CC(C#N)C3)c2)ccc1-c1cn[nH]c1` (stereo partly drawn) [Example 61, 1-{3-[(2R)-4-hydroxy-1-[3-methoxy-4-(1H-pyrazol-4-yl)benzoyl]pyrrolidin-2-yl]benzoyl} azetidin-3-carbonitrile], the pIC50 was 6.99. Compound `COc1cc(C(=O)N2CC(O)C[C@@H]2c2cccc(C(=O)N3CC(OC)C3)c2)ccc1-c1cn[nH]c1` (stereo partly drawn) [Example 62, (5R)-1-[3-methoxy-4-(1H-pyrazol-4-yl)benzoyl]-5-[3-(3-methoxyazetidine-1-carbonly)phenyl] pyrrolidin-3-ol] gave a pIC50 of 6.50. The value for `COc1cc(C(=O)N2CC(O)C[C@@H]2c2cccc(C(=O)NCc3ccc(C(F)(F)F)cc3F)c2)ccc1-c1cn[nH]c1` (stereo partly drawn) [Example 63, N-{[2-fluoro-4-(trifluoromethyl)phenyl]methyl}-3-[(2R)-4-hydroxy-1-[3-methoxy-4-(1H-pyrazol-4-yl)benzoyl]pyrrolidin-2-yl]benzamide] was 8.28; that for `COc1cc(C(=O)N2CC(O)C[C@@H]2c2cccc(C(=O)N3CC(F)C3)c2)ccc1-c1cn[nH]c1` (stereo partly drawn) [Example 64, (5R)-5-[3-(3-fluoroazetidine-1-carbonyl)phenyl]-1-[3-methoxy-4-(1H-pyrazol-4-yl)benzoyl]pyrrolidin-3-ol] was 6.69. The value for `COc1cc(C(=O)N2CC(O)C[C@@H]2c2cccc(C(=O)N3CC(F)(F)C3)c2)ccc1-c1cn[nH]c1` (stereo partly drawn) [Example 65, (5R)-5-[3-(3,3-difluoroazetidine-1-carbonyl)phenyl]-1-[3-methoxy-4-(1H-pyrazol-4-yl)benzoyl]pyrrolidin-3-ol] was 7.04. In turn, `COc1cc(C(=O)N2CC(O)C[C@@H]2c2cccc(C(=O)NCc3cc(F)cc(C(F)(F)F)c3)c2)ccc1-c1cn[nH]c1` (stereo partly drawn) [Example 66, N-{[3-fluoro-5-(trifluoromethyl)phenyl]methyl}-3-[(2R)-4-hydroxy-1-[3-methoxy-4-(1H-pyrazol-4-yl)benzoyl]pyrrolidin-2-yl]benzamide] gave a negative logarithm of the IC50 (pIC50) of 8.36. `COc1cc(C(=O)N2CC(O)C[C@@H]2c2cccc(C(=O)N3CCC3)c2)ccc1-c1cn[nH]c1` (stereo partly drawn) [Example 67, (5R)-5-[3-(azetidine-1-carbonyl)phenyl]-1-[3-methoxy-4-(1H-pyrazol-4-yl)benzoyl]pyrrolidin-3-ol] had a pIC50 of 6.53. For `COc1cc(C(=O)N2CCNCC2c2ccccc2)ccc1-c1cn[nH]c1` (centres unmarked) [Example 68, 1-[3-Methoxy-4-(1H-pyrazol-4-yl)benzoyl]-2-phenylpiperazine] the value was 7.22; for `COc1cc(C(=O)N[C@@H]2CNC[C@H]2c2ccccc2)ccc1-c1cn[nH]c1` [Example 69, 3-Methoxy-N-[(3S,4R)-4-phenylpyrrolidin-3-yl]-4-(1H-pyrazol-4-yl)benzamide], 8.44. The value for `COc1cc(C(=O)N2CCCC2c2cccc(-c3cn[nH]c3)c2)ccc1-c1cn[nH]c1` (centres unmarked) [Example 71, 4-(2-Methoxy-4-{2-[3-(1H-pyrazol-4-yl)phenyl]pyrrolidine-1-carbonyl}phenyl)-1H-pyrazole] was 7.26; that for `COc1cc(-c2cn[nH]c2)ccc1C(=O)N1CCCC1c1cccc(-c2cn[nH]c2)c1` (centres unmarked) [Example 72, 4-(3-methoxy-4-{2-[3-(1H-pyrazol-4-yl)phenyl]pyrrolidine-1-carbonyl}phenyl)-1H-pyrazole] was 5.80. For `COc1cc(C(=O)N2CCCC2c2cccc(-c3ccnn3C)c2)ccc1-c1cn[nH]c1` (centres unmarked) [Example 73, 5-(3-{1-[3-methoxy-4-(1H-pyrazol-4-yl)benzoyl]pyrrolidin-2-yl}phenyl)-1-methyl-1H-pyrazole] the value was 5.82. The compound `COc1cc(C(=O)N2CCCC2c2cccc(-c3cnn(CC(C)(C)O)c3)c2)ccc1-c1cn[nH]c1` (centres unmarked) [Example 74, 1-[4-(3-{1-[3-methoxy-4-(1H-pyrazol-4-yl)benzoyl]pyrrolidin-2-yl}phenyl)-1H-pyrazol-1-yl]-2-methylpropan-2-ol] showed a pIC50 of 6.05. Compared with the last compound, the pIC50 is 0.23 log units higher. For `COc1cc(C(=O)N2CCCC2c2cccc(-c3c(C)noc3C)c2)ccc1-c1cn[nH]c1` (centres unmarked) [Example 75, 4-(3-{1-[3-methoxy-4-(1H-pyrazol-4-yl)benzoyl]pyrrolidin-2-yl}phenyl)-3,5-dimethyl-1,2-oxazole] the value was 5.80.

The compound `COc1cc(C(=O)N2CCCC2c2cccc(-c3ccoc3)c2)ccc1-c1cn[nH]c1` (centres unmarked) [Example 76, 4-(4-{2-[3-(furan-3-yl)phenyl]pyrrolidine-1-carbonyl}-2-methoxyphenyl)-1H-pyrazole] showed a pIC50 of 6.49.

For the compound `COc1cc(C(=O)N2CCCC2c2cccc(-c3ccn[nH]3)c2)ccc1-c1cn[nH]c1` (centres unmarked) [Example 77, 4-(2-methoxy-4-{2-[3-(1H-pyrazol-5-yl)phenyl]pyrrolidine-1-carbonyl}phenyl)-1H-pyrazole], the pIC50 is 6.05. For `COc1cc(C(=O)N2CC(F)C[C@@H]2c2cccc(C(=O)NC3CC3)c2)ccc1-c1cn[nH]c1` (stereo partly drawn) [Example 78, N-Cyclopropyl-3-[(2R)-4-fluoro-1-[3-methoxy-4-(1H-pyrazol-4-yl)benzoyl]pyrrolidin-2-yl]benzamide], the pIC50 was 8.33. For `COc1cc(C(=O)N2CC(F)(F)C[C@@H]2c2cccc(C(=O)NC3CC3)c2)ccc1-c1ccncc1` [Example 79, N-Cyclopropyl-3-[(2R)-4,4-difluoro-1-[3-methoxy-4-(pyridin-4-yl)benzoyl]pyrrolidin-2-yl]benzamide] the value was 7.61.

For orientation: pIC50 means −log10 of the IC50, conventionally taken in molar units. The low end stands for a large IC50, the high end for a small IC50.
